Reference: US20250221960A1, “COMPOSITIONS AND METHODS FOR THE TREATMENT OF DEPRESSION” (Janssen Pharmaceuticals, Inc., priority 2022, published 2025)

What was measured:
[1] = system: subjects with MDD; test: Biomarker signature subtyping of MADRS treatment outcome (Example 4); assay type: in vivo, human
Experimental: Serum or plasma was prepared from the samples of venous blood. Measurements of human CRP and IL-6-R were performed in serum using an MSD Sector 6000 with the kits #K151STD and K151ALC (MesoScale Discovery, Rockville, MD). Human TNFα was quantified in serum using a Simoa HD-1 analyzer with kit #143 (Quanterix, Lexington, MA). Human Dynorphin was assayed in plasma using a SpectraMax M plate reader (Molecular devices, San Jose, CA) with kit #CSB-E09128h (Cusabio, Wuhan, China). All measures were performed according to kit manufacturer's recommendations.
As used in the following biomarker assay analysis, treatment (TRT) refers to treatment with an SSRI/SNRI plus Aticaprant and placebo (PBO) refers to treatment with an SSRI/SNRI plus placebo.
Treatment Outcome: Change in clinical scale at the of end of the double period. Negative values indicate improvement in depression levels relative to baseline levels. The more negative the change, the greater the improvement.
Sig^Pos: Patient meeting the criteria defined by signature of biomarkers and/or clinical scales.
3 MM: Inflammatory biomarker signature with positive status defined by CRP>3 mg/L and (TNFα>4 pg/mL or sIL6R>25 ng/ml).
4 MM: Inflammatory biomarker signature with positive status defined by high dynorphin (δ1) or 3 MM with moderate dynorphin (δ2) subtypes, specifically: DYN>δ1 pg/mL or (DYN>δ2 pg/mL and CRP>3 mg/L and (TNFα>4 pg/ml or sIL6R>25 ng/ml)). In certain embodiments, the 4 MM DYN cutoffs are as follows: Dyn>50 OR (3 MM and Dyn>8); Dyn>24 OR (3 MM and Dyn>8), or Dyn>11.4 and 3 MM.
TE Sig^Pos: Treatment Effect in Signature Positive group: (Average mean MADRS change in placebo-Average mean MADRS change in treatment) in Sig^Pos group.
TE Sig^Neg: Treatment Effect in Signature Negative group.
Sig Adv: Signature Advantage (interaction) Difference in TE between signature groups: Sig Adv=TE Sig^Pos−TE Sig^Neg.
The effect of biomarker signatures on patient response to treatment is summarized in graphical form using two panel box plots in FIG. 25. […] Red color represents placebo and teal represents aticaprant. Rectangular boxes span Diamonds and error bars represent mean and 95% Confidence Interval (CI) of treatment outcome by treatment arm and biomarker signature status. In the signature positive group, the treatment effect (difference in average treatment outcome between treatment arms) was of 6.29 MADRS points (One sided p=0.07, effect size=0.75). While in the signature negative groups, the treatment effect was 1.59 MADRS points. In other words, subjects who are biomarker signature positive improve by an additional 4.7 points […] relative to placebo when treated with aticaprant, compared to subjects who are biomarker signature negative. This signature advantage of 4.7 MADRS points represents the interaction of biomarker signature status with treatment effect. Treatment effects, signature advantage, and corresponding p values are assessed using a linear regression model for treatment outcome with independent variables for treatment, biomarker signature status, and their interaction. All p-values are one sided. Significant is defined as nominal one sided p value <0.05.

[2] = system: subjects with MDD; test: Treatment-emergent adverse events, full safety analysis set, Example 1
[3] = Table 24, treatment period, Full Safety Analysis Set, 10 mg, N = 85
[4] = Table 25, treatment period, Full Safety Analysis Set, 10 mg, N = 85
[5] = Treatment period, Full Safety Analysis Set, 10 mg, N = 85

SMILES: Cc1cc(C)cc(C2CCCN2Cc2ccc(Oc3ccc(C(N)=O)cc3F)cc2)c1 (centres unmarked) [aticaprant, 3-fluoro-4-4-2-(3,5-dimethylphenyl) pyrrolidin-1-yl-methylphenoxybenzamide]
- treatment effect in biomarker signature positive patients ([1]; 3 MM and DYN>δ signature (δ=11.5)): very large treatment effect
- average aticaprant response in biomarker signature negative patients ([1]; 3 MM or DYN signature negative): worse than that of placebo
- signature advantage ([1]; 3 MM or high DYN signature, in more than 60% of patients): 3-8 point
- signature advantage (TE SigPos - TE SigNeg) ([1]; 3 MM signature): 4.7 MADRS points
- effect size in signature positive group ([1]; 3 MM signature positive): 0.75
- treatment effect in signature positive group (placebo - treatment MADRS change) ([1]; 3 MM signature positive (21% of MDD), end of double-blind): 6.3 MADRS points
- improvement compared to biomarker signature negative counterpart ([1]; 4 MM signature (63% of MDD)): 6 points
- MADRS points difference at end DB relative to placebo ([1]; 4 MM signature positive (63% of MDD)): 4.6 MADRS points
- treatment effects of 4 MM signatures ([1]; DYN>δ1 or (3 MM and DYN>δ2), range of δ1): ≥ 4.5 MADRS points
- signature advantage of 4 MM signatures ([1]; in 38-63% of patients): > 5 point
- TEAE in >=5% of subjects: Diarrhea [2, 3]: 7 (8) n (%)
- TEAE in >=5% of subjects: Gastrointestinal Disorders [2, 3]: 12 (14) n (%)
- TEAE in >=5% of subjects: Headache [2, 3]: 10 (12) n (%)
- TEAE in >=5% of subjects: Infections And Infestations [2, 3]: 13 (15) n (%)
- TEAE in >=5% of subjects: Nasopharyngitis [2, 3]: 5 (6) n (%)
- TEAE in >=5% of subjects: Nervous System Disorders [2, 3]: 13 (15) n (%)
- TEAE in >=5% of subjects: Pruritus [2, 3]: 5 (6) n (%)
- TEAE in >=5% of subjects: Skin And Subcutaneous Tissue Disorders [2, 3]: 6 (7) n (%)
- TEAE in >=5% of subjects: Total no. Subjects with Adverse Events [2, 3]: 40 (47) n (%)
- TEAE of Special Interest: Abdominal Pain [2, 4]: 1 (1.2) n (%)
- TEAE of Special Interest: Abdominal Pain Upper [2, 4]: 0 n (%)
- TEAE of Special Interest: Diarrhea [2, 4]: 7 (8.2) n (%)
- TEAE of Special Interest: Dyspepsia [2, 4]: 1 (1.2) n (%)
- TEAE of Special Interest: Gastrointestinal Disorders [2, 4]: 9 (10.6) n (%)
- TEAE of Special Interest: Pruritus [2, 4]: 5 (5.9) n (%)
- TEAE of Special Interest: Skin And Subcutaneous Tissue Disorders [2, 4]: 5 (5.9) n (%)
- TEAE of Special Interest: Total no. Subjects with Adverse Events of Special Interest [2, 4]: 13 (15.3) n (%)
- Subjects with 1 or more TEAE [2, 5]: 40 (47.1) n (%)
- Subjects with 1 or more serious TEAE [2, 5]: 0 n (%)
- Subjects with TEAE leading to death [2, 5]: 0 n (%)
- Subjects with TEAE leading to discontinuation of agent [2, 5]: 1 (1.2) n (%)
- Total subjects affected by non-serious adverse events [2, 5]: 23 (27.1%) n (%)
- Subjects with drug-related TEAE ([2]; Treatment period, Full Safety Analysis Set, 10 mg, N = 85, relationships possible, probable, very likely): 20 (23.5) n (%)
- patients who experienced acute cholecystitis ([2]; treatment period): 0 patients
- TEAE of special interest pruritus, subjects ([2]; treatment period, 5/85): 5.9%
- TEAE diarrhea, subjects ([2]; treatment period, 7/85): 8.2%
- TEAE headache, subjects ([2]; treatment period, 10/85): 11.8%
- subjects who discontinued due to treatment-emergent adverse events ([2]; treatment period, due to diarrhea, nausea, vomiting and headache): 1 subject
